{
  "source": "patent US20170304386A1",
  "about": "“METHOD FOR INHIBITING SURVIVAL, TUMORIGENESIS AND METASTASIS OF CANCER CELLS AND/OR CANCER STEM CELLS” (priority 2014, published 2017)",
  "key": {"[1]": {"test_system": "culture-enriched TICs (SPH) of HT29 and ALDH+ cells isolated from HCW primary liver metastasis cancer cells and fresh cancer cells", "assay": "TUNEL assay of TICs cultured in spheroid (suspension) condition", "format": "cell-based, human", "settings": "spheroid condition 24 hours; S3I-201 50 μM", "description": "FIGS. 8a-8f show the suspension survival ability determines tumourigenicity and corresponds to clinical tumour staging and survival. […] FIGS. 8b and 8c show the culture-enriched TICs (SPH) of HT29 and ALDH^+ cells isolated from HCW primary liver metastasis cancer cells and fresh cancer cells were cultured in spheroid condition for 24 hours with treatment of STAT3 inhibitor (S3I-201, 50 μM) or 1:25 dilution of the 0.25 mg/ml anti-Col XVII antibody, followed by TUNEL assay. (Ab-1, Abcam; Ab-2, Pierce). […] FIG. 8e (top), representative pictures of positive staining of colorectal tumour tissues (different stages) are shown, FIG. 8e (bottom), quantification and the correlation between protein expression and tumour stages was subsequently determined. The results are expressed as percentage of DAB positive cells and every single plot represents a patient. The median is shown as a single black line. […] The expression of pS727STAT≧40% or Col XVII 50% was regarded as positive. Asterisks indicate significant differences determined by Fisher's exact test, one-way ANOVA, and log-rank test. […]\nDetection of apoptosis was performed (Roche Molecular Biochemicals, Indianapolis, Ind.). […] Immunofluorescence is observed with fluorescence microscope."}, "enriched TICs (HT29)": {"test_system": "enriched TICs (HT29)", "assay": "Tumourigenicity of enriched TICs (xenograft transplantation)", "format": "in vivo, athymic nude mice", "settings": "TICs directly treated with S3I-201 50 μM, or S3I-201 5 mg/kg intravenously post injection of TICs", "description": "FIGS. 8a-8f show the suspension survival ability determines tumourigenicity and corresponds to clinical tumour staging and survival. […] FIGS. 8b and 8c show the culture-enriched TICs (SPH) of HT29 and ALDH^+ cells isolated from HCW primary liver metastasis cancer cells and fresh cancer cells were cultured in spheroid condition for 24 hours with treatment of STAT3 inhibitor (S3I-201, 50 μM) or 1:25 dilution of the 0.25 mg/ml anti-Col XVII antibody, followed by TUNEL assay. (Ab-1, Abcam; Ab-2, Pierce). […] FIG. 8e (top), representative pictures of positive staining of colorectal tumour tissues (different stages) are shown, FIG. 8e (bottom), quantification and the correlation between protein expression and tumour stages was subsequently determined. The results are expressed as percentage of DAB positive cells and every single plot represents a patient. The median is shown as a single black line. […] The expression of pS727STAT≧40% or Col XVII 50% was regarded as positive. Asterisks indicate significant differences determined by Fisher's exact test, one-way ANOVA, and log-rank test.\nThe protocols were approved by the Institutional Animal Committee of Taipei Veterans General Hospital. […] Tumour cells were injected subcutaneously (s.c.) and tumour growth was monitored every week for up to 3 months. […]"}},
  "data": [
    {"compound": "Cc1ccc(S(=O)(=O)OCC(=O)Nc2ccc(C(=O)O)c(O)c2)cc1", "note": "[S3I-201]", "values": [
      {"measurement": "killing of TICs in suspension culture (TUNEL assay)", "setting": "[1]", "result": "killed TICs"},
      {"measurement": "tumour initiation", "setting": "enriched TICs (HT29)", "result": "inhibited tumour initiation"}
    ]}
  ]
}
